In patent EP4793271A1, “NEUROPROTECTIVE AGENT” (National Center of Neurology and Psychiatry, priority 2023, dated 2025):
pIC50: −log10 of the molar value. Where two headings read alike, the source gives them in different places.

Tests used:
[1] = test system: primary cultured cells of mouse fetus-derived dorsal root ganglia (DRGs); assay: Suppression of axonal degeneration after axotomy in DRG explant culture; format: cell-based; details: minimum concentration at which axonal degeneration was suppressed (DI 0.3 or less), 24 hours after axotomy; for minimal effective concentration: Mus musculus, read-out: Evaluation on protection against degeneration
Description: The compound of the present invention was studied for its protective effect against axonal injury using primary cultured cells of mouse fetus-derived dorsal root ganglia (DRGs).
DRGs were collected from a fetus derived from an ICR mouse (13.5 days of pregnancy). DRGs were cultured using a plate coated by incubation with 0.1 mg/mL poly-L-lysine at 4°C for 24 hours or longer, washing with PBS, and then incubation with 2.5 µg/mL Cultrex Mouse Laminin I at 37°C for 4 to 6 hours.
One of DRGs collected was plated to each well of the coated 24-well plate. The DRG was cultured in a nicotinamide-free medium for neuron (supplemented with 10% FBS, 1 mM glutamine, 50 ng/mL NGF2.5S, and penicillin-streptomycin) for 24 hours at maximum from the start of culture and then cultured in a nicotinamide-free medium for neuron (supplemented with 2% MACS NeuroBrew-21, 50 ng/mL NGF2.5S, 1% Glutamax, 20 µM uridine, 20 µM 5-fluoro-2'-deoxyuridine, and penicillin-streptomycin) for 7 to 8 days.
The nicotinamide-free medium for neuron was prepared so as to have the same constituents as those of the composition published in a previously reported paper (Brewer et al., J. Neuroscience Research 35: 567-576) except for nicotinamide with reference to this composition.
The test compound is dissolved in DMSO and added to cells such that the final concentration of DMSO is 0.1% (1000-fold dilution). 10 mM, 1 mM, 100 µM, 10 µM, 1 µM, and 100 nM samples of the test compound are prepared and added at a 1000-fold dilution to cells.
Axotomy was carried out by scooping out a cell body portion of the cultured DRG with a chip for a micropipette. The test compound was added at the following concentrations (final concentration: 10 µM, 1 µM, 100 nM, 10 nM, 1 nM, and 100 pM) within 30 minutes after axotomy. The compound was evaluated for its protective effect against axonal degeneration by imaging (Leica DMIL microscope, 20× objective lens) the state of neurites 24 hours after axotomy and evaluating the degree of degeneration. The degree of degeneration was quantified using a program uniquely developed using the R language. A degeneration index (DI) was used as an indicator for the degree of degeneration, and the ratio of the area of a fragmented axon to the total area of axons was calculated as defined in the equation of Expression 2. Suppressed axonal degeneration was evaluated when the value of DI was 0.3 or less. The minimum concentration at which axonal degeneration was suppressed was determined for each compound. Degeneratioin index (DI) = (Degenerated axons)/(All axons) [formula]
The axonal protective activity was evaluated as A ≤ 0.01 µM, 0.01 µM < B ≤ 0.1 µM, and 0.1 µM < C ≤ 1 µM depending on the minimum concentration at which axonal degeneration was suppressed.

[2] = molecular target: T1, nicotinamide phosphoribosyl transferase (NAMPT) (Homo sapiens, UniProt P43490); assay: NAMPT activity measurement (NMN fluorescence detection); format: biochemical; details: NAMPT recombinant protein, 10 µM Nam; for pIC50: read-out: Evaluation on NAMPT inhibitory
T1 construct: purchased Medical & Biological Laboratories Co., Ltd. (MBL)
T1 sequence (P43490 whole entry, species assumed): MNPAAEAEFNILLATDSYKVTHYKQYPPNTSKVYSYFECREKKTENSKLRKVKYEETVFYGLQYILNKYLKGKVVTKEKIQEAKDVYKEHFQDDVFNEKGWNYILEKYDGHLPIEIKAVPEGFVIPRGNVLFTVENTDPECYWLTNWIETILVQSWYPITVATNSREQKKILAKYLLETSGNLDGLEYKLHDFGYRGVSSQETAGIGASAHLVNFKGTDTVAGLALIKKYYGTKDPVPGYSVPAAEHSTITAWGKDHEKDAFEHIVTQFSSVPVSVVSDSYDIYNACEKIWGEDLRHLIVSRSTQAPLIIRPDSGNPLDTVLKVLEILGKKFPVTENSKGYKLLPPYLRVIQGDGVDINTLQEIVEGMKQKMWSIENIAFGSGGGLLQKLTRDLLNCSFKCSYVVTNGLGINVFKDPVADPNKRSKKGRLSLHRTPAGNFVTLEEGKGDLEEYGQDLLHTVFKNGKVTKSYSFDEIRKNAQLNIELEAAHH
Description: The compound of the present invention was evaluated for the ability to influence the activity of nicotinamide phosphoribosyl transferase (NAMPT) which is an enzyme that metabolizes nicotinamide (Nam), not the target SARM1.
The enzymatic reaction of NAMPT was carried out by adding NAMPT recombinant protein (manufactured by Medical & Biological Laboratories Co., Ltd. (MBL)) to a reaction solution containing the substrate Nam, phosphoribosylpyrophosphate (PRPP), ATP, and the like (composition: […] (pH = 7.4), 2 µM ATP, 0.5 µM PRPP, 0.02% BSA, 2 µM DTT, 1.2 µM MgCl2, and 10 µM Nam). The amount of the reaction product NMN was detected by detecting the fluorescent signal of a fluorescent substance obtained through the reaction of 2-acetylbenzofuran with NMN using SpectraMax M2 (Molecular Devices) (excitation: 421 nm, fluorescence: 480 nm) (Moriya et al, Chemical Communications 2013, 49 11500). The test compound was added at final concentrations of 10 µM, 3 µM, 1 µM, 300 nM, 100 nM, 30 nM, 10 nM, and 3 nM to the NMN synthesis reaction system described above. The NMN-derived fluorescent signal was normalized against a control group and plotted as the function of the test compound concentrations, and the compound was evaluated for its NAMPT inhibitory effect by calculating IC50.
The IC50 value was evaluated as ∘ for ≥1 µM and as Δ for ≥0.1 µM.

hSARM1 = molecular target: T2, hSARM1 (Homo sapiens, UniProt Q6SZW1); assay: Human SARM1 activity measurement in HEK293 cells transiently transfected with ΔN-hSARM1 (PC6 fluorescent probe); format: cell-based; design: expressed in transfected cells; host or cells: HEK293, pcDNA3 expression vector
T2 sequence (Q6SZW1 28-724): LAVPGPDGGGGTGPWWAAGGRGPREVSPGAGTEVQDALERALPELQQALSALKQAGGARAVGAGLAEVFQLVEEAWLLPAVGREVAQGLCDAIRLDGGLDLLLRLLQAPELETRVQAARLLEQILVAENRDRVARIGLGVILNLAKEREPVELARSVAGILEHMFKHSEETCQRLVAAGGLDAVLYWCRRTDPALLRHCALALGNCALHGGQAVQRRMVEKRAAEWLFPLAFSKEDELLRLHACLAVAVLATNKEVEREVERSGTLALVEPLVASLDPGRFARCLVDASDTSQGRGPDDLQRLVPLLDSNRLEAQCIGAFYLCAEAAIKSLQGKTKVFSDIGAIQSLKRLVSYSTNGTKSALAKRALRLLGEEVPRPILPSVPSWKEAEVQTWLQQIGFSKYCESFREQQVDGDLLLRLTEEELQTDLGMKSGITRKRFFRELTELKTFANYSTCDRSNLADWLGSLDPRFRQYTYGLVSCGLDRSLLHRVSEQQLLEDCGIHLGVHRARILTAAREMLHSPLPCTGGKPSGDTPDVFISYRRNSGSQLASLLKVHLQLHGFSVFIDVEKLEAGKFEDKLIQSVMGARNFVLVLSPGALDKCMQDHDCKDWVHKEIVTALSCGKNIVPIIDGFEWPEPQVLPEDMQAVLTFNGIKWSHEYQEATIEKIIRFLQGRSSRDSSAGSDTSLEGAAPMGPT
Description: HEK293 cells cultured in a prepared medium of nicotinamide-free DMEM (Dulbecco's modified Eagle medium) supplemented with 10% FBS (BioSera), a 1% penicillin-streptomycin solution (FUJIFILM Wako Pure Chemical Corp.), 5 μM nicotinamide were inoculated at approximately 50,000 cells/well to a 96-well microplate, and the cells were cultured at 37°C under 5% CO2, transiently transfected on the next day with a pcDNA3 expression vector containing a DNA sequence (SEQ ID NO: 1) deficient in a mitochondrial targeting sequence encoded by an N-terminal 78-base sequence in cDNA encoding human sterile α- and armadillo-motif-containing protein (hSARM1) using PEI MAX(R) reagent (PolySciences Inc.), and forced to express ΔN-hSARM1 (SEQ ID NO: 2). Approximately 8 hours later, PC6, which reacts as a substrate of SARM1-specific base exchange reaction and functions as a fluorescent probe, was added thereto at a final concentration of 50 μM, and intracellular hSARM1 activity was measured (Li et al, eLife 2021 10: e67381). A compound for inhibitory activity evaluation was added at a final concentration of 30 μM at the same time with PC6, while dimethyl sulfoxide (Nacalai Tesque Inc.) was added to samples of a control group at the same time with PC6. The cells were incubated at 37°C under 5% CO2 for approximately 48 hours from transfection, followed by fluorescent signal measurement using SpectraMax M2 (Molecular Devices) (excitation: 405 nm, fluorescence: 525 nm, fluorescence cutoff: 515 nm). Results of this screening are reported as an inhibition rate (%) relative to a negative control defined as follows by using fluorescence intensity measured from a control group without transfection with ΔN-hSARM1 as a background whereas using fluorescence intensity measured from a control group transfected with ΔN-hSARM1 as the negative control. Inhibitory rate (%) = 100-(([…]-Background))/((Signalofthenegativecontrol-Background)) × 100 [formula] The nicotinamide-free medium was prepared so as to have the same composition as that of DMEM having known composition which is generally used in the art except for nicotinamide. […]

[3] = inhibition rate, compound 30 µM, PC6 50 µM, HEK293 cells expressing ΔN-hSARM1, approximately 48 hours from transfection, read-out: Evaluation on hSARM1 inhibitory

SMILES | minimal effective concentration [1] | Evaluation on NAMPT inhibitory [2] | inhibition at 30 µM (hSARM1; [3]) | pIC50 [2] | Evaluation on protection against degeneration [1] | inhibition at 30 µM (hSARM1; HEK293, read-out: Evaluation on hSARM1 inhibitory)
O=C(NCc1ccc(NC(=O)c2ccc(F)cc2)nc1)c1cccnc1 [Compound 117] | ≤ 0.01 µM | ○ | > 75% | – | – | –
O=C(NCc1ccc(NC(=O)c2ccc(Cl)cc2)nc1)c1cccnc1 [Compound 118] | ≤ 0.01 µM | ○ | > 75% | – | – | –
Cc1ccc(C(=O)Nc2ccc(CNC(=O)c3cccnc3)cn2)cc1 [Compound 119] | ≤ 0.01 µM | ○ | > 75% | – | – | –
O=C(NCc1ccc(NC(=O)c2cccnc2)nc1)c1cccnc1 [Compound 120] | ≤ 0.01 µM | ○ | > 25% | – | – | –
O=C(NCc1ccc(NC(=O)c2ccc3ncccc3c2)nc1)c1cccnc1 [Compound 122] | ≤ 0.01 µM | ○ | > 75% | – | – | –
O=C(Cc1ccc2ccccc2c1)Nc1ccc(CNC(=O)c2cccnc2)cn1 [Compound 123] | ≤ 0.01 µM | – | > 75% | ≤ 7.00 | – | –
O=C(NCc1ccc(NC(=O)c2ccncc2)nc1)c1cccnc1 [Compound 124] | ≤ 0.01 µM | ○ | > 75% | – | – | –
O=C(NCc1ccc(NC(=O)c2ccccn2)nc1)c1cccnc1 [Compound 125] | ≤ 0.01 µM | – | > 75% | ≤ 7.00 | – | –
O=C(NCc1ccc(NC(=O)c2cnc3ccccc3c2)nc1)c1cccnc1 [Compound 126] | ≤ 0.01 µM | – | > 75% | ≤ 7.00 | – | –
O=C(NCc1ccc(NC(=O)c2ccc3ccccc3c2)nc1)c1cccnc1 [Compound 127] | ≤ 0.01 µM | – | > 75% | ≤ 7.00 | – | –
O=C(NCc1ccc(NC(=O)c2ccc(-c3ccccc3)cc2)nc1)c1cccnc1 [Compound 128] | ≤ 0.01 µM | ○ | > 75% | – | – | –
COc1ccc(C(=O)Nc2ccc(CNC(=O)c3cccnc3)cn2)cc1 [Compound 129] | ≤ 0.01 µM | ○ | > 75% | – | – | –
Cc1ccccc1C(=O)Nc1ccc(CNC(=O)c2cccnc2)cn1 [Compound 130] | ≤ 0.01 µM | ○ | > 75% | – | – | –
CCc1ccc(C(=O)Nc2ccc(CNC(=O)c3cccnc3)cn2)cc1 [Compound 131] | ≤ 0.01 µM | ○ | > 75% | – | – | –
O=C(NCc1ccc(NC(=O)c2cccc(Cl)c2)nc1)c1cccnc1 [Compound 132] | ≤ 0.01 µM | ○ | > 75% | – | – | –
O=C(NCc1ccc(NC(=O)c2ccccc2F)nc1)c1cccnc1 [Compound 133] | ≤ 0.01 µM | ○ | > 75% | – | – | –
Cc1ccc(C(=O)Nc2ccc(CNC(=O)c3cccnc3)cn2)cc1C [Compound 134] | ≤ 0.01 µM | ○ | > 75% | – | – | –
Cc1ccc(C(=O)Nc2ccc(CNC(=O)c3cccnc3)cn2)c(C)c1 [Compound 135] | – | ○ | – | – | A (A ≤ 0.01 µM) | > 75%
Cc1cc(C)cc(C(=O)Nc2ccc(CNC(=O)c3cccnc3)cn2)c1 [Compound 136] | ≤ 0.01 µM | ○ | > 75% | – | – | –
O=C(NCc1ccc(NC(=O)c2ccc(F)c(F)c2)nc1)c1cccnc1 [Compound 137] | ≤ 0.01 µM | ○ | > 75% | – | – | –
O=C(NCc1ccc(NC(=O)c2cc(F)cc(F)c2)nc1)c1cccnc1 [Compound 138] | ≤ 0.01 µM | ○ | > 75% | – | – | –
O=C(NCc1ccc(NC(=O)c2ccc(F)cc2F)nc1)c1cccnc1 [Compound 139] | ≤ 0.01 µM | ○ | > 25% | – | – | –
